Results as given in ChEMBL document CHEMBL1140879, “Synthesis of isothiazol-3-one derivatives as inhibitors of histone acetyltransferases (HATs)” (Bioorg Med Chem, 2009).

Assays:
[1] = target: Histone acetyltransferase KAT2B (Homo sapiens, UniProt Q92831); assay: Inhibition of GST-fused recombinant HAT PCAF expressed in Escherichia coli by filter assay
[2] = target: T1, Histone acetyltransferase p300 (Homo sapiens, UniProt Q09472); assay: Inhibition of GST-fused recombinant HAT p300 expressed in Escherichia coli by filter assay
T1 sequence (Q09472 whole entry, the tested form may be a part): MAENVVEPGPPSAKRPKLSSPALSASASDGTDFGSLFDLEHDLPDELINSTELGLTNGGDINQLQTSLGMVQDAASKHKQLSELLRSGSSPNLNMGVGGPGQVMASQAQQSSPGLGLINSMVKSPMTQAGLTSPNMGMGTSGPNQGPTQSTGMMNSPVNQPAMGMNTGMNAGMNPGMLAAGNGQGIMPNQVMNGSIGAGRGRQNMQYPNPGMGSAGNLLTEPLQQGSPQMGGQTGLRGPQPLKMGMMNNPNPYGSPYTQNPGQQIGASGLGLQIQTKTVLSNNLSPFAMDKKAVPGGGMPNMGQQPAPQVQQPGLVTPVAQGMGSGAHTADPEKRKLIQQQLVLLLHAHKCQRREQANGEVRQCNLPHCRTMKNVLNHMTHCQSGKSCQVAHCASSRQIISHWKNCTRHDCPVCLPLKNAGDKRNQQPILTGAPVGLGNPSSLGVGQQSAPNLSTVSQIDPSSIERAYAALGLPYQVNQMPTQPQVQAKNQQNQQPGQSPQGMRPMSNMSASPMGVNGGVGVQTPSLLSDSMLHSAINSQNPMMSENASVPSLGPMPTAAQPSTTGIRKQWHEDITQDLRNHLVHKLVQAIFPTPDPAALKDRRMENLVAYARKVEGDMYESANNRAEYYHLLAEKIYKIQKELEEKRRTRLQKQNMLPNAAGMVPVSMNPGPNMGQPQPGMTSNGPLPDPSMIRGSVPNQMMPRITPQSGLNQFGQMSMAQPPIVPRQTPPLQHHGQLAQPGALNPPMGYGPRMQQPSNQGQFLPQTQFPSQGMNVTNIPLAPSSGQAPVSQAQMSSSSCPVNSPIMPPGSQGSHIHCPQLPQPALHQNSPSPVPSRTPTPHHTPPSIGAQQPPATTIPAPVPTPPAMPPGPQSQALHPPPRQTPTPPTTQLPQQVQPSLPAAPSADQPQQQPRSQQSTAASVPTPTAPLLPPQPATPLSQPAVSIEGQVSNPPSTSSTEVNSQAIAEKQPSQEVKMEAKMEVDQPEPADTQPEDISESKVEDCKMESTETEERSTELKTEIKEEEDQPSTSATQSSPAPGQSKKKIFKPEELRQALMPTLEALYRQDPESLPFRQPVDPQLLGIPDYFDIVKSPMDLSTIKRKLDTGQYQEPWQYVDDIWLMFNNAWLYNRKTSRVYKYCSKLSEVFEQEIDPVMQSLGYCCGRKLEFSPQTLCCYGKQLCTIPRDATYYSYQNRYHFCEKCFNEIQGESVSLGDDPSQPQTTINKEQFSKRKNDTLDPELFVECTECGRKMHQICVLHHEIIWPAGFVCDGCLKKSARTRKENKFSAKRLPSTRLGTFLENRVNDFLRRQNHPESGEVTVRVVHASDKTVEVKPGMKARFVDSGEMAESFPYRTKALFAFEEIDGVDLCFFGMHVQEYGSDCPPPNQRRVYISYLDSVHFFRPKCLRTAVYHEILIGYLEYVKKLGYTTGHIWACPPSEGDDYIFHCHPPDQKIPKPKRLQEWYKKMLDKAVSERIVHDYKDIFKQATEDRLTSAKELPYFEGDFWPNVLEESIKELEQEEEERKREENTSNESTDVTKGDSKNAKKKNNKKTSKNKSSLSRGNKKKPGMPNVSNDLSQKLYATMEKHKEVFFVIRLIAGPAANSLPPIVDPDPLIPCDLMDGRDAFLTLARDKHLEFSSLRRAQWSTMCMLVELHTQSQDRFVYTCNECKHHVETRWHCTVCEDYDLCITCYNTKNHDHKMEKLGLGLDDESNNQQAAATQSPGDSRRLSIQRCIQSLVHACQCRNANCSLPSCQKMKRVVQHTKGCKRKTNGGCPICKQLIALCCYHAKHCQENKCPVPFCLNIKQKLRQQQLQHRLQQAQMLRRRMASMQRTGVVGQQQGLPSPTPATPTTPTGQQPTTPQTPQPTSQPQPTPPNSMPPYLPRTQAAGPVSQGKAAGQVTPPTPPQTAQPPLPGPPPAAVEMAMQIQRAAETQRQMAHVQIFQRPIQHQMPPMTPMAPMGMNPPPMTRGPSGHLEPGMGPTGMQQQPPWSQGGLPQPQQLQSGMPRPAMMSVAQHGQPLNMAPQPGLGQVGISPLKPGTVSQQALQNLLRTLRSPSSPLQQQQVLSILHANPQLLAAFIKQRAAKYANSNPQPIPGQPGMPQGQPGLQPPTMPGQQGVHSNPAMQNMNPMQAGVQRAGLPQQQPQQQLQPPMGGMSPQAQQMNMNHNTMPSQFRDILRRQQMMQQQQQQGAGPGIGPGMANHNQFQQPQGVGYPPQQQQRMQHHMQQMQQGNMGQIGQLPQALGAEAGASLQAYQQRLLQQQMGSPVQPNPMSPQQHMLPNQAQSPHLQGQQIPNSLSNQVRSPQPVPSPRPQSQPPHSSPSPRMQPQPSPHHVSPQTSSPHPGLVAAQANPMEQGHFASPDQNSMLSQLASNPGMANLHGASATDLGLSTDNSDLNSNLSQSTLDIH

[3] = target: T1, Histone acetyltransferase p300; assay: Inhibition of recombinant His-tagged HAT p300 expressed in Sf21-Baculovirus system
[4] = target: T1, Histone acetyltransferase p300; assay: Inhibition of HAT p300

Histone acetyltransferase KAT2B, sequence (Q92831 whole entry, the tested form may be a part): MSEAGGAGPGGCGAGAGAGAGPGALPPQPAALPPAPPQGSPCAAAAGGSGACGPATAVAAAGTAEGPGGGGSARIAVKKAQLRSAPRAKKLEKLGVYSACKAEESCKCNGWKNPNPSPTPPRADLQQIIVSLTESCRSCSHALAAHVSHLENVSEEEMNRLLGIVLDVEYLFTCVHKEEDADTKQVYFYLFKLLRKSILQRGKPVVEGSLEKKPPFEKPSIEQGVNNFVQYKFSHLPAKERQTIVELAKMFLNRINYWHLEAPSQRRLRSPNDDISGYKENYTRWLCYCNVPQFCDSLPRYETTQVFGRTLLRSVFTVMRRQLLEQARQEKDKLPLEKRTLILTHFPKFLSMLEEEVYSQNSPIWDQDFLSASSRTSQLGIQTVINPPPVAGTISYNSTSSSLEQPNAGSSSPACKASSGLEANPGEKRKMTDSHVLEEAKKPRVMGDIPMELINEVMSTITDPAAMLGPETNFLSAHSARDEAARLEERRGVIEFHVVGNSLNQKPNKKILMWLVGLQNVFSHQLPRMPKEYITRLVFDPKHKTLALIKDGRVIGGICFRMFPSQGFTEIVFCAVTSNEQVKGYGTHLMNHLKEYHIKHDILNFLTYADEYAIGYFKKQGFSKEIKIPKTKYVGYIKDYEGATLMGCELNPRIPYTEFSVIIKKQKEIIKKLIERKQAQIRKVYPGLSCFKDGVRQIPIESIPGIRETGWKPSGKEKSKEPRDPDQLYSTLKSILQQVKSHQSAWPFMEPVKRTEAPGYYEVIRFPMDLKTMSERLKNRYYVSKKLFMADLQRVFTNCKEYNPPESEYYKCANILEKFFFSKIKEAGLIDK

O=c1c2cccnc2sn1-c1ccccc1
IC50 [1]: 6.1 µM

CN(C)c1ccc(-n2sccc2=O)cc1
IC50 [1]: 5.4 µM

O=c1cc(CO)sn1-c1ccccc1
IC50 [1]: 109 µM

Cc1csn(-c2ccccc2)c1=O
IC50 [1]: 32 µM

[N-]=[N+]=NCc1csn(-c2ccccc2)c1=O
IC50 [1]: 42.7 µM

O=c1ccsn1-c1cccnc1
IC50 [2]: 14.4 µM
IC50 [1]: 6.5 µM

O=c1ccsn1-c1cc(F)c(F)c(F)c1
IC50 [1]: 3.1 µM

O=c1ccsn1-c1cccc(Cl)c1F
IC50 [1]: 5.4 µM

O=c1ccsn1-c1ccccn1
IC50 [2]: 28 µM
IC50 [1]: 19 µM

[N-]=[N+]=NCc1cc(=O)n(-c2ccccc2)s1
IC50 [1]: 58 µM

Cc1cc(=O)n(-c2ccccc2)s1
IC50 [1]: > 200 µM

COCc1csn(-c2ccccc2)c1=O
IC50 [1]: 102 µM

COc1sn(-c2ccccc2)c(=O)c1C
IC50 [1]: > 200 µM

O=c1ccsn1-c1ccc(N2CCOCC2)cc1
IC50 [2]: 9.9 µM
IC50 [1]: 7.5 µM

CC(=O)OCc1cc(=O)n(-c2ccccc2)s1
IC50 [1]: 162 µM

O=c1ccsn1-c1ccncc1
IC50 [2]: 3 µM
IC50 [1]: 1.5 µM

O=c1cc(-c2ccccc2)sn1-c1ccccc1
IC50 [1]: > 200 µM

Cc1c(Cl)sn(-c2ccccc2)c1=O
IC50 [1]: 19.8 µM

O=C(Nc1ccccc1)OCc1cc(=O)n(-c2ccccc2)s1
IC50 [1]: > 200 µM

O=c1ccsn1-c1ccccc1
IC50 [2]: 23 µM
IC50 [1]: 28 µM

C=CC/C=C\C/C=C\CCCCCCCc1cccc(O)c1C(=O)O [ANACARDIC ACID]
IC50 [3]: 5 µM

C=C(C)[C@@H](CC=C(C)C)C[C@@]12C[C@@H](CC=C(C)C)C(C)(C)[C@@](CC=C(C)C)(C(=O)C(C(=O)c3ccc(O)c(O)c3)=C1O)C2=O [GARCINOL]
IC50 [4]: 6 µM
